In the SangsterLogP compilation:
Square brackets hold non-standard residues; d marks the D form. Peptide text beside a SMILES is read from it. NMeF = CN[CH](Cc1ccccc1)C(=O)O

What was measured:
[1] = method code SF-AS, from DOI: 10.1002/jps.2600710122
[2] = method code SF-HPLC, from DOI: 10.1002/jlac.1995199512306
[3] = method code HPLC, from DOI: 10.1016/j.ejmech.2015.05.022, PMID: 26005028; conditions: pH 7.1
[4] = method code SF-AS, from DOI: 10.1016/j.ejmech.2011.02.056, PMID: 21420207
[5] = not given; remark: listed apart in the source
[6] = not given; remark: listed apart in the source
[7] = method code SF-CR+AS, from DOI: 10.1007/bf00500994, PMID: 4267539; conditions: pH 7.4
[8] = method code SF-HPLC, from DOI: 10.1021/jm00169a024, PMID: 2194033; conditions: pH 7.4
[9] = method code SF, from PMID: 26783178
[10] = method code HPLC, from DOI: 10.1016/j.bmcl.2004.01.062, PMID: 15026043; conditions: pH 5.5
[11] = not given; remark: listed apart in the source
[12] = method code SF-HPLC, from DOI: 10.2174/1871523013666141114203105, PMID: 25403255; conditions: pH 7.4
[13] = not given; remark: listed apart in the source
[14] = not given; remark: listed apart in the source
[15] = not given; remark: listed apart in the source
[16] = method code SF-HPLC, from DOI: 10.1016/0378-5173(91)90200-8; conditions: pH 7.4
[17] = method code SF-RC, from DOI: 10.1023/a:1015867608405, PMID: 1614980; conditions: pH 7.4
[18] = not given; remark: listed apart in the source
[19] = method code SF, from DOI: 10.1515/znc-1979-1128; conditions: pH 7.4
[20] = not given; remark: listed apart in the source
[21] = method code SF-AS, from DOI: 10.1021/jm0104926, PMID: 11960499
[22] = method code SF-GLC, from DOI: 10.1002/jps.2600620103, PMID: 4734195
[23] = not given; remark: listed apart in the source
[24] = method code SF-HPLC, from DOI: 10.1016/0045-6535(86)90532-1; conditions: pH 6.5
[25] = method code SF-HPLC, from DOI: 10.1002/jccs.199500138

## CC(=O)Nc1n[nH]c(NC(C)=O)n1
[1]
  logP: -1.01

## Cc1cn(C2CC(N=[N+]=[N-])C(COP(=O)(OCc3ccccc3)OCC3OC(n4cc(C)c(=O)[nH]c4=O)CC3N=[N+]=[N-])O2)c(=O)[nH]c1=O (configuration not stated)
[2]
  logP: 1.34

## CC[C@H]1OC(=O)C[C@@H](O)[C@H](C)[C@@H](O[C@@H]2O[C@H](C)C[C@H](N(C)C)[C@H]2O)[C@@H](CC=O)C[C@@H](C)C(=O)/C=C/[C@]2(C)O[C@H]2[C@@H]1C
other
  logP: 2.19

## COC(=O)CBr
[3]
  logD: 0.77

## CCCCCCCC(=O)N[C@H]1C[C@H](O[C@H]2C[C@](O)(C(=O)CO)Cc3c(O)c4c(c(O)c32)C(=O)c2c(OC)cccc2C4=O)O[C@@H](C)[C@H]1O
[4]
  logP: 1.81

## CCCCCCCCc1ccc(OCC(=O)Cn2cc(C(=O)C(C)C)c3cc(C(=O)O)ccc32)cc1
[5]
  logP: 6.6

## CCCCCCCCCCCCCCCC(=O)N[C@H]1C[C@H](O[C@H]2C[C@](O)(C(=O)CO)Cc3c(O)c4c(c(O)c32)C(=O)c2c(OC)cccc2C4=O)O[C@@H](C)[C@H]1O
[4]
  logP: 2.19

## Cc1c(-c2cnccn2)ssc1=S
[6]
  logP: 2.79

## O=CC(Cl)(Cl)Cl
[7]
  logD: 1.61

## CO[C@@H]1[C@@H](O[C@@H]2O[C@H](C)[C@@H](O)[C@H](N(C)C)[C@H]2O)[C@@H](CC=O)C[C@@H](C)C(=O)/C=C\[C@H]2O[C@H]2C[C@@H](C)OC(=O)C[C@H]1OC(C)=O
other
  logP: 0.3

## Cc1cn(C2CC(N=[N+]=[N-])C(COP(=O)(OCc3ccc(C#N)cc3)OCC3OC(n4cc(C)c(=O)[nH]c4=O)CC3N=[N+]=[N-])O2)c(=O)[nH]c1=O (configuration not stated)
[2]
  logP: 0.91

## CC[C@H]1OC(=O)[C@H](C)[C@@H](O[C@H]2C[C@@](C)(OC)[C@@H](O)[C@H](C)O2)[C@H](C)[C@@H](O[C@@H]2O[C@H](C)C[C@H](N(C)C)[C@H]2O)[C@](C)(O)C[C@@H](C)C(=O)[C@H](C)[C@@H](O)[C@]1(C)O
other
  logP: 3.06

## CCN1CC(C(O)[C@H](CC2CCCCC2)NC(=O)[C@H](Cc2cnc[nH]2)NC(=O)[C@@H](CC(=O)N(C)CCOCOC)Cc2ccccc2)OC1=O (some centres not stated)
[8]
  logD: 2.49

## O=C1[C@H](CC[C@H](O)c2ccc(F)cc2)[C@@H](c2ccc(O)cc2)N1c1ccc(F)cc1
[9]
  logP: 3.64

## CN(C)C(=O)Oc1ccc(CC(NC(=O)C2N(S(=O)(=O)c3cnn(C)c3)CSC2(C)C)C(=O)OCC(C)(C)C)cc1 (configuration not stated)
[10]
  logD: 3.42

## Fc1ccccc1
[11]
  logP: 2.01

## COc1cc(C=O)ccc1OC(=O)COC(=O)Cc1ccccc1Nc1c(Cl)cccc1Cl
[12]
  logD: 4.86

## CC(C)=O
[11]
  logP: -0.17

## Cc1cn(C2CC(N=[N+]=[N-])C(COP(=O)(OCc3cccc([N+](=O)[O-])c3)OCC3OC(n4cc(C)c(=O)[nH]c4=O)CC3N=[N+]=[N-])O2)c(=O)[nH]c1=O (configuration not stated)
[2]
  logP: 0.99

## ClC(Br)Br
[13]
  logP: 2.24

## C=CCBr
[14]
  logP: 1.9

## CCN1CC(C(O)[C@H](CC2CCCCC2)NC(=O)[C@H](Cc2cnc[nH]2)NC(=O)[C@@H](Cc2ccc(OC)cc2)NC(=O)N2CCOCC2)OC1=O (some centres not stated)
[8]
  logD: 2.11

## CCCCCCCCc1ccc(OCC(=O)Cn2ccc3cc(C(=O)O)ccc32)cc1
[5]
  logP: 6.3

## Nc1ccc(S(=O)(=O)NC(=O)c2ccccc2)cc1
[15]
  logP: 1.46

## CCCCCCCCc1ccc(OCC(=O)Cn2cc(C(=O)OC)c3cc(C(=O)O)ccc32)cc1
[5]
  logP: 6.2

## CCCCCCCCCCCC(=O)N[C@H]1C[C@H](O[C@H]2C[C@](O)(C(=O)CO)Cc3c(O)c4c(c(O)c32)C(=O)c2c(OC)cccc2C4=O)O[C@@H](C)[C@H]1O
[4]
  logP: 1.96

## CCOC(=O)CC(Cc1cncn1C)C(CC)C(=O)OCc1ccc(COC(=O)C(CC)C(CC(=O)OCC)Cc2cncn2C)cc1 (configuration not stated)
[16]
  logD: 4.08

## CC(=O)NC(Cc1ccccc1)C(=O)NC(Cc1ccccc1)C(=O)N(C)C(Cc1ccccc1)C(N)=O (stereo not drawn) (Ac-Phe-Phe-[NMeF]-NH2; configuration not given here)
[17]
  logD: 2.63

## CC1=C(C/C=C(\C)CCC[C@H](C)CCC[C@H](C)CCCC(C)C)C(=O)c2ccccc2C1=O
[18]
  logP: 11.7

## CC(=O)OCCCCOC(C)=O
[14]
  logP: 0.01

## c1ncncn1
[19]
  logD: -0.73

## CCCC
[20]
  logP: 2.74

## FC(F)(C(Cl)Br)C1N=N1 (configuration not stated)
[21]
  logP: 1.9

## CC(C)OC(=O)C(Cc1ccc(OC(=O)N(C)C)cc1)NC(=O)C1N(S(=O)(=O)c2cnn(C)c2)CSC1(C)C (configuration not stated)
[10]
  logD: 2.46

## Cc1ccc(N2C(=O)[C@H](CCCNS(=O)(=O)c3ccc(OC(F)(F)F)cc3)[C@H]2c2ccc([N+](=O)[O-])cc2)cc1
[9]
  logP: 4.55

## OCC(Cl)Cl
[22]
  logP: 0.37

## CCC(C(=O)OCc1ccc(COC(=O)C(CC)C(COC(C)=O)Cc2cncn2C)cc1)C(COC(C)=O)Cc1cncn1C (configuration not stated)
[16]
  logD: 3.04

## COc1ccc(C(=O)C2c3cccc(O)c3C(=O)c3c(O)cccc32)cc1
[23]
  logP: 3.74

## CC1=C(C)C(O)N(c2ccc(C)c(C)c2)C1=O (configuration not stated)
[19]
  logD: 2.36

## CCC#N
[15]
  logP: 0.1

## CC(C)CCC[C@@H](C)[C@H]1CC[C@H]2C3=CC=C4C[C@@H](O)CC[C@]4(C)[C@H]3CC[C@]12C
[18]
  logP: 8.65

## CCC(C(=O)OCc1ccc(COC(=O)C(CC)C(COC(=O)CC(=O)OC)Cc2cncn2C)cc1)C(COC(=O)CC(=O)OC)Cc1cncn1C (configuration not stated)
[16]
  logD: 2.76

## C=CCc1ccc(OC(=O)COC(=O)Cc2ccccc2Nc2c(Cl)cccc2Cl)c(OC)c1
[12]
  logD: 5.13

## CC(O)C(F)(F)F (configuration not stated)
[22]
  logP: 0.71

## CCCCNC(=S)NCCCC
[24]
  logD: 2.75

## COc1ccccc1OC(=O)COC(=O)Cc1ccccc1Nc1c(Cl)cccc1Cl
[12]
  logD: 4.6

## FC(Cl)C(F)(F)C1(Br)N=N1 (configuration not stated)
[21]
  logP: 2.18

## S=C1NCCN1
[24]
  logD: -0.66

## CC(=CCCC(C)C1CC(O)C2(C)C3=CCC4C(C)(CCC(O)C4(C)C)C3=CCC12C)C(=O)O (configuration not stated)
[25]
  logP: 2.69

## ClC(Cl)(Cl)Cl
[20]
  logP: 2.59

## CCc1ccc(S(=O)(=O)NCCCC2C(=O)N(c3ccc(C)cc3)C2c2ccc(NS(C)(=O)=O)cc2)cc1 (configuration not stated)
[9]
  logP: 3.62

## NC(=O)c1cssc1=S
[6]
  logP: 0.3

## Nc1nc(NC(=O)C(F)(F)C(F)(F)C(F)(F)F)n[nH]1
[1]
  logP: 1.54

## CC(=O)O[C@@H]1C[C@@H]([C@@H](C)CC/C=C(\C)C(=O)O)[C@]2(C)CC=C3C(=CCC4C(C)(C)[C@H](O)CC[C@@]34C)[C@@]12C (some centres not stated)
[25]
  logP: 2.71

## C=C1CC[C@H](O)C/C1=C/C=C1\CCC[C@]2(C)[C@@H]([C@H](C)CCCC(C)C)CC[C@@H]12
[18]
  logP: 10.2

## OCC(Cl)(Cl)Cl
[7]
  logD: 1.42

## CC(=O)OC1CCC2(C)C3=CCC4(C)C(C(C)CCC=C(C)C(=O)O)CC(O)C4(C)C3=CCC2C1(C)C (configuration not stated)
[25]
  logP: 2.72

## CCN1CC(C(O)[C@H](CC2CCCCC2)NC(=O)[C@H](Cc2cnc[nH]2)NC(=O)[C@@H](CC(=O)N(C)CCOC)Cc2ccccc2)OC1=O (some centres not stated)
[8]
  logD: 2.45

## CCCCCCNC(=O)CBr
[3]
  logD: 2.18

## CNC(=O)C(Cc1ccccc1)N(C)C(=O)C(Cc1ccccc1)N(C)C(=O)C(Cc1ccccc1)N(C)C(C)=O (configuration not stated) (Ac-[NMeF]-[NMeF]-[NMeF]-NHMe; configuration not given here)
[17]
  logD: 3.24

## CC(=O)N(C)C(Cc1ccccc1)C(=O)N(C)C(Cc1ccccc1)C(=O)N(C)C(Cc1ccccc1)C(N)=O (configuration not stated) (Ac-[NMeF]-[NMeF]-[NMeF]-NH2; configuration not given here)
[17]
  logD: 2.92

## ClC(Cl)Br
[13]
  logP: 2.1
